What all share (type): cell-based
The subject of assay [1] is diploid MCF10A cells. Nature of the assay: Mitotic index from fixed-cell images. The settings on record: 10 nM paclitaxel, 24 h. On the procedure: (§1) For experiments involving siRNA knockdown followed by drug treatment, the indicated concentrations of paclitaxel (Selleck Chemicals, Houston, Tex.), nocodazole (Selleck Chemicals, Houston, Tex.), and/or monastrol (Selleck Chemicals, Houston, Tex.) were added to cells 24 h after siRNA treatment. Three hours after drug addition, cells were either fixed and stained for immunofluorescence imaging or imaged live in a glass-bottom 24-well dish. To compare the effects of paclitaxel treatment to the effects of KIF18A KD in MDA-MB-231 and MCF10A cell lines, 10 nM of paclitaxel was added to cells 24 h before fixing and staining for immunofluorescence imaging.
(§2) To measure the length of mitosis, live cells were imaged every two minutes for 16-20 hours using differential interference contrast (DIC) microscopy. The time between nuclear envelope breakdown (NEB) and anaphase onset (AO) was used to indicate the time a cell spent in mitosis. Mitotic index was measured using fixed-cell images by counting the number of mitotic cells divided by the total number of cells. All mitotic index fields were taken with a 40×objective. An unpaired t-test was used to determine statistical significance between control and KIF18A KD conditions for each cell line.

Assay [2] has as its system diploid MCF10A cells. Nature of the assay: Mitotic spindle morphology analysis (multipolar spindles, fixed cells). The conditions noted are these: 10 nM paclitaxel, 24 h. The method, then: as §1
(§3) To analyze mitotic spindle morphology, cells were fixed and stained for γ-tubulin, α-tubulin, and centrin-1. Enough optical slices spaced 200 nm apart were captured to visualize the entire 3-D structure of the spindle. Spindles with three or more visible microtubule-organizing centers were classified as multipolar. Cells were considered to have fragmented pericentriolar material (PCM) if they had supernumerary poles observed via γ-tubulin staining but lacked centrioles (centrin-1 puncta) at one or more of the poles. Intercentriolar distance, or the distance in microns between two centrioles in a pair, was measured from the center of one centriole to the center of the adjacent centriole.

In assay [3] the test system is MDA-MB-231 cells. In words: Mitotic spindle morphology analysis (multipolar spindles, centrioles, fixed cells). The method, then:
as §1
Cells were grown on glass coverslips and fixed using either −20° C. methanol or 1% paraformaldehyde in −20° C. methanol. Cells were blocked with 20% goat serum in antibody diluting buffer (Abdil—TBS, 1% BSA, 0.1% Triton X-100, and 0.1% sodium azide) and incubated with the following primary antibodies: mouse anti-α-tubulin (DM1α) 1:500 (Millipore Sigma, Burlington Mass.) for one hour at room temperature (RT), human anti-centromere antibody (ACA) 1:250 (Antibodies Incorporated) overnight at 4° C., rabbit anti-γ-tubulin 1:500 (Abcam, Cambridge, Mass.) for one hour at RT, mouse anti-γ-tubulin 1:500 for one hour at RT (Abcam, Cambridge, Mass.), rabbit anti-KIF18A 1:100 (Bethyl Laboratories, Montgomery, Tex.) at 4° C. overnight, mouse anti-centrin-1 1:500 (Santa Cruz Biotechnology) for one hour at RT, and rabbit KIF18B 1:2000 (Shin et al., “Biased Brownian Motion as a Mechanism to Facilitate Nanometer-scale Exploration of the Microtubule Plus End by a Kinesin-8,” Proc National Acad Sci 112:E3826-35 (2015), which is hereby incorporated by reference in its entirety) for one hour at RT. Secondary antibodies conjugated to Alexa Fluor 488, 594, and 647 (Molecular Probes, Eugene, Oreg.) were used at concentrations of 1:15000 for one hour at RT. Coverslips were mounted onto glass slides using Prolong Gold anti-fade mounting medium with DAPI (Molecular Probes, Eugene, Oreg.).
as §3

The subject of assay [4] is MDA-MB-231 cells. Nature of the assay: Mitotic index from fixed-cell images. The settings on record: 500 nM UMK57 in KIF18A-depleted cells, versus DMSO. The method, then:
as §1, §2

In assay [5] the test system is MDA-MB-231 cells. Nature of the assay: Live imaging with siR-tubulin (spindle pole splitting). The conditions noted are these: UMK57 in KIF18A KD cells. On the procedure: Cells were plated in a glass-bottom 24-well dish and treated with the indicated siRNA approximately 24 hours before imaging. Six hours before imaging, the cell culture media was replaced with CO2-independent media containing […] SiR-tubulin (Cytoskeleton). For conditions involving UMK57 or DMSO, the specified drug was added to the CO2-independent media with siR-tubulin. Cells were imaged every 2 minutes for 16-20 hours using a 40×0.75 NA objective (Nikon).

Assay [6] has as its system MDA-MB-231 cells. In words: Kinetic cell proliferation assay, siRNA plus UMK57 or DMSO. The method, then: HT29, LoVo, SW480, LS1034, HCC1806, HCT116, MCF10A, MDA-MB-231, and MDA-MB-468 cells were purchased from ATCC (Manassas, Va.). All cell lines were validated by STR DNA fingerprinting using the Promega GenePrint® 10 System according to manufacturer's instructions (Promega #B9510). HT29, LoVo, SW480, MDA-MB-231, and MDA-MB-468 cells were cultured in DMEM/F-12 medium (Gibco) supplemented with 10% FBS (Gibco) and 1% penicillin/streptomycin (pen/strep). LS1034 and HCC1806 cells were cultured in RPMI 1640 medium (Gibco) with 10% FBS and 1% pen/strep. […]
Cells were imaged in either a 96- or 24-well dish every two or four hours for up to five days using the Cytation 5 Cell Imaging Multi-Mode Reader (Biotek, Winooski, Vt.) driven by Gen5 software (Biotek, Winooski, Vt.). […] Between imaging reads, cells were incubated at 37° C. with 5% CO2 using the Biospa 8 Automated Incubator (Biotek, Winooski, Vt.). […] To determine rates of cell proliferation, the fold change in cells/mm^2 between the first and last reads of each well were calculated and normalized to the control for each experiment. […] For cytotoxicity assays, CellTox™ Green Dye (Promega, Madison, Wis.) was added to cell media prior to imaging, and the number of cells/mm^2 was recorded for both GFP and brightfield channels. […]

In the case of `CC(=O)O[C@H]1C(=O)[C@@]2(C)[C@H]([C@H](OC(=O)c3ccccc3)[C@]3(O)C[C@H](OC(=O)[C@H](O)[C@@H](NC(=O)c4ccccc4)c4ccccc4)C(C)=C1C3(C)C)[C@]1(OC(C)=O)CO[C@@H]1C[C@@H]2O` [paclitaxel], the mitotic index result in the assay with diploid MCF10A cells [1] is on record as “increased the mitotic index”. In addition, the multipolar spindles result in the assay on diploid MCF10A cells [2] was “increased”. In addition, the “multipolar spindles in KIF18A KD cells” value in the assay on MDA-MB-231 cells [3] (20 nM paclitaxel for 3 h, versus DMSO) is given as “significantly fewer multipolar spindles”. In addition, the “mitotic defects (mitotic index, multipolar spindles)” value with MDA-MB-231 cells [3] (MDA-MB-231, KIF18A KD versus 10 nM paclitaxel (24 h)) is given as “produced similar mitotic defects”.

On to `COC(=O)Nc1nc2ccc(C(=O)c3cccs3)cc2[nH]1` [nocodazole], for which the “multipolar spindles in KIF18A KD cells” value with MDA-MB-231 cells [3] (5 μM nocodazole for 3 h, versus DMSO) is on record as “significantly fewer multipolar spindles”.

For the compound `Cc1ccc(-c2csc3ncnc(N4CCCC4)c23)cc1` [UMK57], the mitotic index result in the assay with MDA-MB-231 cells [4] was “increased”. Moreover, in the assay on MDA-MB-231 cells [5], the spindle pole splitting result is reported as “increased spindle pole splitting”. For the same compound, the proliferation result in the assay with MDA-MB-231 cells [6] (500 nM UMK57 in KIF18A-depleted cells, versus DMSO) is “decreased proliferation”; with MDA-MB-231 cells [6] (500 nM UMK57 in control siRNA-treated cells), “no impact on the proliferation”. For the same compound, the “percentage of multipolar spindles” value with MDA-MB-231 cells [3] (500 nM UMK57 in KIF18A KD cells, versus DMSO) is reported as “small but significant increase in multipolar spindles”. In addition, the “chromosome alignment defects in bipolar spindles” value in the assay with MDA-MB-231 cells [3] (UMK57 in KIF18A KD cells) is recorded as “without an obvious change in chromosome alignment defects”.

The record behind these values is patent publication US20230233565A1, “A TREATMENT APPROACH INVOLVING KIF18A INHIBITION FOR CHROMOSOMALLY UNSTABLE TUMORS” (UNIVERSITY OF VERMONT, priority 2020, published 2023).
